Results published in article PMC5224880, “Discovery and Molecular Basis of a Diverse Set of Polycomb Repressive Complex 2 Inhibitors Recognition by EED” (PLoS ONE, 2017).

Key:
Type in all cases: biochemical
SMYD3 = target: T1, SMYD3 (Homo sapiens, UniProt Q9H7B4); experiment: HMT panel selectivity: SMYD3
T1 sequence (Q9H7B4 1-428): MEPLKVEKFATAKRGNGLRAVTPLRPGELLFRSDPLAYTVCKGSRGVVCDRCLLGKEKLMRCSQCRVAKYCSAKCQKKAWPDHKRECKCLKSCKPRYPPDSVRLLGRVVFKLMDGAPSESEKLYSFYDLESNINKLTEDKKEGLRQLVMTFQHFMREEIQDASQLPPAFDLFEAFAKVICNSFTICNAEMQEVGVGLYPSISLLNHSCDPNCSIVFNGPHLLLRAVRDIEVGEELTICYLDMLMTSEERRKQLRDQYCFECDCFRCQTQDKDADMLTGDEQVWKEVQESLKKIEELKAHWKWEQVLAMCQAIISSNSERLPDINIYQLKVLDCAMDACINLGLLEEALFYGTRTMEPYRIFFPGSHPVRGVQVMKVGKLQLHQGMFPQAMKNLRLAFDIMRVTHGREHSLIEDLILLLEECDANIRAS
Protocol: (§1) Note: for EZH2, EZH2/EED/SUZ12/RBAP48/AEBP2 was used in the assay; for EZH1, EZH1/EED/SUZ12/RBAP48/AEBP2 was used in the assay; for MLL, MLL/WDR5/RBBP5/ASH2L/ was use in the assay. a, H3K27me0 peptide was used as substrate for both EZH2 and EZH1 activity; b, H3K27me1 peptide was used as substrate for both EZH2 and EZH1 activity. All HMT reactions were performed as described previously. ref: Proc Natl Acad Sci U S A. 2012 Dec 26;109(52):21360-5.

[1] = target: MLL (MLL/WDR5/RBBP5/ASH2L) (Homo sapiens, UniProt Q03164); experiment: HMT panel selectivity: MLL
Protocol: as §1

SetD8 = target: T2, SetD8 (Homo sapiens, UniProt Q9NQR1); experiment: HMT panel selectivity: SetD8
T2 sequence (Q9NQR1 1-393): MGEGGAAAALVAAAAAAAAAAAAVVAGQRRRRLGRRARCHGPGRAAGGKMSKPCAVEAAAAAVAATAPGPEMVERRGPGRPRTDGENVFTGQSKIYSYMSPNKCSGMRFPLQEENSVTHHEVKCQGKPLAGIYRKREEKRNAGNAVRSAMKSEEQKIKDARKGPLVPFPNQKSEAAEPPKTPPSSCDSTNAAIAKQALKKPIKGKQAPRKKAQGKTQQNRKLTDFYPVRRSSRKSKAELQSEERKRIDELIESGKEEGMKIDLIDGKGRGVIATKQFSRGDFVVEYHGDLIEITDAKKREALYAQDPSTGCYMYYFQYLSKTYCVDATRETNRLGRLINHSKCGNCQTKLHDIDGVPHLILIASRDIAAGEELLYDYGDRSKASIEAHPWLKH
Protocol: as §1

CARM1 = target: T3, CARM1 (Homo sapiens, UniProt Q86X55); experiment: HMT panel selectivity: CARM1
T3 sequence (Q86X55 1-608): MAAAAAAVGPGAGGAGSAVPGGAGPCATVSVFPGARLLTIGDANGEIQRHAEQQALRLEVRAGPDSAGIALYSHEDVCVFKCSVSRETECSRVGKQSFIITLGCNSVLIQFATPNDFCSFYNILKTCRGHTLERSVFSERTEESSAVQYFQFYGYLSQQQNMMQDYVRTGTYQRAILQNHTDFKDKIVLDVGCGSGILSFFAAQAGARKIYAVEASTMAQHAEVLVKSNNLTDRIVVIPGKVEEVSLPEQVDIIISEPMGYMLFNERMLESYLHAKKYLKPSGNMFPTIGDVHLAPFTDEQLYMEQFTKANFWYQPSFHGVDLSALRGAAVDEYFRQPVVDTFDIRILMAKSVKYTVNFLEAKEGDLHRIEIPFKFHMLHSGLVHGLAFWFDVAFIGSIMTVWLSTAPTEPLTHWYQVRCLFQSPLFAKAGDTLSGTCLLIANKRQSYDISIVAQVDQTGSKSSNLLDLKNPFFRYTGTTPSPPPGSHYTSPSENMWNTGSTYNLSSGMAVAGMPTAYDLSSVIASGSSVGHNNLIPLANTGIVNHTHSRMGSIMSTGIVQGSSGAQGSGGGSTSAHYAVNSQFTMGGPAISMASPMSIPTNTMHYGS
Protocol: as §1

PRMT3 = PRMT3 (Homo sapiens, UniProt O60678); experiment: HMT panel selectivity: PRMT3
Sequence of PRMT3 (O60678 whole entry, species assumed): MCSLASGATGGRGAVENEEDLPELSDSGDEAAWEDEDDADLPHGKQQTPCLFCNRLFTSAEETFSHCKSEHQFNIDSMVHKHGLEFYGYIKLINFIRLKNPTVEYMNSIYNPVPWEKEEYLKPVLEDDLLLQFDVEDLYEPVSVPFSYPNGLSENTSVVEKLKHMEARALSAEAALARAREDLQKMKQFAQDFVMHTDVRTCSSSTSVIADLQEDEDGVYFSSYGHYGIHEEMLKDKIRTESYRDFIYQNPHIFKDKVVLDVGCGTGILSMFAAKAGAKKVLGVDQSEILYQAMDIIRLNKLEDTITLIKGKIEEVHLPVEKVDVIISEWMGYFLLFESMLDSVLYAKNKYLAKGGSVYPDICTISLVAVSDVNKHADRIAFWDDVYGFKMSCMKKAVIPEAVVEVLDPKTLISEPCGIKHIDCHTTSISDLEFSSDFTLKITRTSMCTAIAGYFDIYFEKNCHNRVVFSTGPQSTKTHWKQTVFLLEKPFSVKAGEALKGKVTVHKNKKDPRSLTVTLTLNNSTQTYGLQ
Protocol: as §1

Measured: IC50

N#Cc1c2c(c3nncn3c1NCc1ccco1)CN(Cc1ccccc1)CC2 [EED162]
> 100 µM: all assays above

COc1cccc(CC2CC3Cc4c(cccc4OC)CC3N(C)C2)c1 (stereo not shown) [EED210]
> 100 µM: all assays above

COc1cc(-c2cc3n(c(=N)c2C#N)CCc2cc4c(cc2-3)OCO4)ccc1OC(C)C [EED396]
> 100 µM: all assays above

Cc1cc(C)n(-c2cc(N3CCc4ccccc4C3)ccc2[N+](=O)[O-])n1 [EED666]
> 100 µM: all assays above

COc1ccccc1CN1CC(c2cn(C)c3ccccc23)C(N(C)C)C1 (stereo not shown) [EED709]
> 100 µM: all assays above
